Laboratory results: patent publication US7652003B2, “Macrocyclic β-secretase inhibitors” (Schering-Plough Corporation, priority 2004, dated 2010)
Read-outs that look alike come from different tables or passages of the source.

Target: T1, sproBACE1 (soluble human BACE1) (Homo sapiens, UniProt P56817)
T1 construct: sBACE1, corresponding to amino acids 1-454; made in house; host or cells: Sf9 insect cells (baculovirus); purified from culture supernatant
Assay: Peptide hydrolysis assay (HTRF, EuK-biotin labeled APPsw substrate)
Type: biochemical
Settings: 7 nM sproBACE1, pH 5.0, 3 hr at 30° C.
Description: A predicted soluble form of human BACE1 (sBACE1, corresponding to amino acids 1-454) was generated from the full length BACE1 cDNA (full length human BACE1 cDNA in pcDNA4/mycHisA construct; University of Toronto) by PCR using the advantage-GC cDNA PCR kit (Clontech, Palo Alto, Calif.). A HindIII/Pmel fragment from pcDNA4-sBACE1 myc/His was blunt ended using Klenow and subcloned into the Stu I site of pFASTBACI(A) (Invitrogen). A sBACE1 mycHis recombinant bacmid was generated by transposition in DH10Bac cells(GIBCO/BRL). Subsequently, the sBACE1 mycHis bacmid construct was transfected into sf9 cells using CellFectin (Invitrogen, San Diego, Calif.) in order to generate recombinant baculovirus. Sf9 cells were grown in SF 900-II medium (Invitrogen) supplemented with 3% heat inactivated FBS and 0.5× penicillin/streptomycin solution (Invitrogen). Five milliliters of high titer plaque purified sBACEmyc/His virus was used to infect 1 L of logarithmically growing sf9 cells for 72 hours. Intact cells were pelleted by centrifugation at 3000×g for 15 minutes. The supernatant, containing secreted sBACE1, was collected and diluted 50% v/v with 100 mM HEPES, pH 8.0. The diluted medium was loaded onto a Q-sepharose column. The Q-sepharose column was washed with Buffer A (20 mM HEPES, pH 8.0, 50 mM NaCl).
Proteins, were eluted from the Q-sepharose column with Buffer B (20 mM HEPES, pH 8.0, 500 mM NaCl). The protein peaks from the Q-sepharose column were pooled and loaded onto a Ni-NTA agarose column. The Ni-NTA column was then washed with Buffer C (20 mM HEPES, pH 8.0, 500 mM NaCl). Bound proteins were then eluted with Buffer D (Buffer C+250 mM imidazole). Peak protein fractions as determined by the Bradford Assay (Biorad, Calif.) were concentrated using a Centricon 30 concentrator (Millipore). sBACE1 purity was estimated to be ˜90% as assessed by SDS-PAGE and Commassie Blue staining.
The inhibitor, 25 nM EuK-biotin labeled APPsw substrate (EuK-KTEEISEVNLDAEFRHDKC-biotin; CIS-Bio International, France), 5 μM unlabeled APPsw peptide (KTEEISEVNLDAEFRHDK; American Peptide Company, Sunnyvale, Calif.), 7 nM sproBACE1, 20 mM PIPES pH 5.0, 0.1% Brij-35 (protein grade, Calbiochem, San Diego, Calif.), and 10% glycerol were preincubated for 30 min at 30° C. […] HTRF measurements were made on a Packard Discovery® HTRF plate reader using 337 nm laser light to excite the sample followed by a 50 μs delay and simultaneous measurements of both 620 nm and 665 nm emissions for 400 μs.
IC50 determinations for inhibitors, (I), were determined by measuring the percent change of the relative fluorescence at 665 nm divided by the relative fluorescence at 620 nm, (665/620 ratio), in the presence of varying concentrations of I and a fixed concentration of enzyme and substrate. […]

[1] = read-out: Activity (IC50 classification)

T1 sequence (P56817 22-454): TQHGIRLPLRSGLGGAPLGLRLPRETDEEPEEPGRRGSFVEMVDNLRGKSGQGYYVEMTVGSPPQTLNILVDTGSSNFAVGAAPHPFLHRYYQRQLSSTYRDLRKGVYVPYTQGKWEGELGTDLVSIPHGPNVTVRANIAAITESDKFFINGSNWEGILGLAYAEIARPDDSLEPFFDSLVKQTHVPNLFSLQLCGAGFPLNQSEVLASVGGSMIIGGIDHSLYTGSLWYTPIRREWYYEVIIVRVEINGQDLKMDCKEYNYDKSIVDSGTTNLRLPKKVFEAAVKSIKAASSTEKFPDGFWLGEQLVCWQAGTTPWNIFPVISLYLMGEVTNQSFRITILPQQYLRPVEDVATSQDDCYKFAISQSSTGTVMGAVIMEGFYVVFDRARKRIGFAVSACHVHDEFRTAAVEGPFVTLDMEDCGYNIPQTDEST

SMILES	IC50 [1]	also measured
CCCN1CCCCOc2ccc(cc2)C[C@@H](C(O)C2NCCN(Cc3ccccc3)C2=O)NC(=O)c2cccc(c2)C1=O (stereo partly shown)	1000 to 10000 nM	–
CCCN1CCCCOc2cc(F)cc(c2)CC(C(O)C2NCCN(Cc3ccccc3)C2=O)NC(=O)c2cccc(c2)C1=O (stereo not shown)	–	Activity (IC50 classification): A or B
O=C1N[C@H]([C@H](O)[C@@H]2NCCN(Cc3ccccc3)C2=O)Cc2cc(F)cc(c2)OCCCCN2CC1CC2=O (stereo partly shown) [drawing 69]	–	IC50 (read-out: IC50): 4 nM
O=C1N[C@H]([C@H](O)[C@@H]2NCCN(Cc3ccccc3)C2=O)Cc2cc(F)cc(c2)OCCCCN2CC1CC2=O (stereo partly shown) [drawing 72]	2 to 1000 nM	–
